Results on nine compounds are retold here after ChEMBL document CHEMBL1697781, “Assessment of the health effects of chemicals in humans: II. Construction of an adverse effects database for QSAR modeling” (Curr Drug Discov Technol, 2004).

What all share (details): human
Data set [1] relates to Hepatotoxicity. The data set can be described thus: FDA HLAED, liver enzyme composite activity.
Data set [2] concerns Hepatotoxicity. Nature of the data set: FDA HLAED, alkaline phosphatase increase.
Data set [3] has as its system Hepatotoxicity. The data set can be described thus: FDA HLAED, serum glutamic oxaloacetic transaminase (SGOT) increase.
The test system of data set [4] is Hepatotoxicity. The data set can be described thus: FDA HLAED, serum glutamic pyruvic transaminase (SGPT) increase.
For data set [5], the system named is Hepatotoxicity. Nature of the data set: FDA HLAED, lactate dehydrogenase (LDH) increase.
Data set [6] has as its system Hepatotoxicity. The data set can be described thus: FDA HLAED, gamma-glutamyl transferase (GGT) increase.
Wherever GGT Increase - Index Value is given: reference of the scale not given here.
Wherever LDH Increase - Index Value is given: reference of the scale not given here.

As to `CC(C)(O/N=C(\C(=O)N[C@@H]1C(=O)N2C(C(=O)[O-])=C(C[n+]3ccccc3)CS[C@H]12)c1csc(N)n1)C(=O)O` [CEFTAZIDIME], in data set [1], the “Composite Activity - Active” value is given as 0, the “Composite Activity - Marginal” value is on record as 0 and the “Composite Activity - Score” value is “Inactive”. In data set [2], the “Alkaline Phosphatase Increase - Activity Score” value was “Inactive”, the “Alkaline Phosphatase Increase - Index Value” was determined as 0 and the “Alkaline Phosphatase Increase - Number of Reports” value is below 4. Further, in data set [3], the “SGOT Increase - Activity Score” value is “Inactive”, the “SGOT Increase - Index Value” is on record as 0 and the “SGOT Increase - Number of Reports” value is given as below 4. In addition, in data set [4], the “SGPT Increase - Activity Score” value is given as “Inactive”, the “SGPT Increase - Index Value” came to 0 and the “SGPT Increase - Number of Reports” value is below 4. In addition, in data set [5], the “LDH Increase - Activity Score” value was “Inactive”, the “LDH Increase - Index Value” amounted to 0 and the “LDH Increase - Number of Reports” value is below 4. Further, in data set [6], the “GGT Increase - Activity Score” value is given as “Inactive”, the “GGT Increase - Index Value” came to 0 and the “GGT Increase - Number of Reports” value was below 4.
With `O=C(O)c1cc(-c2ccc(F)cc2F)ccc1O` [DIFLUNISAL], in data set [1] (Liver), the “Composite Activity - Active” value is recorded as 0, the “Composite Activity - Marginal” value worked out at 0 and the “Composite Activity - Score” value is “Inactive”. Also, in data set [2], the “Alkaline Phosphatase Increase - Activity Score” value is on record as “Inactive”, the “Alkaline Phosphatase Increase - Index Value” is on record as 0 and the “Alkaline Phosphatase Increase - Number of Reports” value is reported as below 4. Further, in data set [3], the “SGOT Increase - Activity Score” value is given as “Inactive”, the “SGOT Increase - Index Value” stood at 0.3 and the “SGOT Increase - Number of Reports” value is on record as below 4. In addition, in data set [4], the “SGPT Increase - Activity Score” value is recorded as “Inactive”, the “SGPT Increase - Index Value” turned out to be 0.5 and the “SGPT Increase - Number of Reports” value is below 4. Further, in data set [5], the “LDH Increase - Activity Score” value is “Inactive”, the “LDH Increase - Index Value” is reported as 0 and the “LDH Increase - Number of Reports” value is below 4. In addition, in data set [6], the “GGT Increase - Activity Score” value is recorded as “Inactive”, the “GGT Increase - Index Value” was determined as 0 and the “GGT Increase - Number of Reports” value is below 4.
As to `C[C@]12CC[C@H]3[C@@H](CCC4=CC(=O)CC[C@@]43C)[C@@H]1CC[C@@H]2OC(=O)CCC1CCCC1` [TESTOSTERONE CYPIONATE], in data set [1], the “Composite Activity - Active” value came to 0, the “Composite Activity - Marginal” value is 0 and the “Composite Activity - Score” value is listed as “Inactive”. In data set [2], the “Alkaline Phosphatase Increase - Activity Score” value is listed as “Inactive”, the “Alkaline Phosphatase Increase - Index Value” is 0 and the “Alkaline Phosphatase Increase - Number of Reports” value is reported as below 4. Further, in data set [3], the “SGOT Increase - Activity Score” value is “Inactive”, the “SGOT Increase - Index Value” is reported as 4.8 and the “SGOT Increase - Number of Reports” value is reported as below 4. In addition, in data set [4], the “SGPT Increase - Activity Score” value is reported as “Inactive”, the “SGPT Increase - Index Value” turned out to be 7.2 and the “SGPT Increase - Number of Reports” value is listed as below 4. Besides, in data set [5], the “LDH Increase - Activity Score” value is recorded as “Inactive”, the “LDH Increase - Index Value” was found to be 2.4 and the “LDH Increase - Number of Reports” value was below 4. Besides, in data set [6], the “GGT Increase - Activity Score” value was “Inactive”, the “GGT Increase - Index Value” is 4.8 and the “GGT Increase - Number of Reports” value is given as below 4.
`N=C(N)NCC1COC2(CCCCC2)O1` (configuration not stated): in data set [1], the “Composite Activity - Active” value amounted to 0, the “Composite Activity - Marginal” value amounted to 0 and the “Composite Activity - Score” value is recorded as “Inactive”. Moreover, in data set [2], the “Alkaline Phosphatase Increase - Activity Score” value is reported as “Inactive”, the “Alkaline Phosphatase Increase - Index Value” is 0 and the “Alkaline Phosphatase Increase - Number of Reports” value is given as below 4. Further, in data set [3], the “SGOT Increase - Activity Score” value was “Inactive”, the “SGOT Increase - Index Value” is listed as 0 and the “SGOT Increase - Number of Reports” value is listed as below 4. Moreover, in data set [4], the “SGPT Increase - Activity Score” value was “Inactive”, the “SGPT Increase - Index Value” is 0 and the “SGPT Increase - Number of Reports” value is listed as below 4. Moreover, in data set [5], the “LDH Increase - Activity Score” value is recorded as “Inactive”, the “LDH Increase - Index Value” is recorded as 0 and the “LDH Increase - Number of Reports” value is below 4. Besides, in data set [6], the “GGT Increase - Activity Score” value was “Inactive”, the “GGT Increase - Index Value” is 0 and the “GGT Increase - Number of Reports” value was below 4.
As for `Clc1ccc(CO/N=C(\Cn2ccnc2)c2ccc(Cl)cc2Cl)c(Cl)c1` [OXICONAZOLE], in data set [1] (Liver), the “Composite Activity - Active” value was 0, the “Composite Activity - Marginal” value turned out to be 0 and the “Composite Activity - Score” value is reported as “Inactive”. Also, in data set [2], the “Alkaline Phosphatase Increase - Activity Score” value is given as “Inactive”, the “Alkaline Phosphatase Increase - Index Value” amounted to 0 and the “Alkaline Phosphatase Increase - Number of Reports” value is below 4. In data set [3], the “SGOT Increase - Activity Score” value is on record as “Inactive”, the “SGOT Increase - Index Value” is reported as 0 and the “SGOT Increase - Number of Reports” value is listed as below 4. Besides, in data set [4], the “SGPT Increase - Activity Score” value is “Inactive”, the “SGPT Increase - Index Value” is given as 0 and the “SGPT Increase - Number of Reports” value is below 4. Besides, in data set [5], the “LDH Increase - Activity Score” value is “Inactive”, the “LDH Increase - Index Value” is on record as 0 and the “LDH Increase - Number of Reports” value is reported as below 4. For the same compound, in data set [6], the “GGT Increase - Activity Score” value is on record as “Inactive”, the “GGT Increase - Index Value” is 0 and the “GGT Increase - Number of Reports” value is reported as below 4.
In the case of `CCC(=O)Oc1ccc2c(c1)CC[C@@H]1[C@@H]2CC[C@]2(C)[C@@H](OC(=O)CC)CC[C@@H]12` [ESTRADIOL DIPROPIONATE], in data set [1], the “Composite Activity - Active” value turned out to be 0, the “Composite Activity - Marginal” value is 0 and the “Composite Activity - Score” value is reported as “Inactive”. In data set [2], the “Alkaline Phosphatase Increase - Activity Score” value was “Inactive”, the “Alkaline Phosphatase Increase - Index Value” is 1.5 and the “Alkaline Phosphatase Increase - Number of Reports” value is reported as “>= 4”. Moreover, in data set [3], the “SGOT Increase - Activity Score” value is recorded as “Inactive”, the “SGOT Increase - Index Value” is 2.8 and the “SGOT Increase - Number of Reports” value is “>= 4”. Moreover, in data set [4], the “SGPT Increase - Activity Score” value is reported as “Inactive”, the “SGPT Increase - Index Value” was found to be 2.1 and the “SGPT Increase - Number of Reports” value is “>= 4”. Moreover, in data set [5], the “LDH Increase - Activity Score” value is reported as “Inactive”, the “LDH Increase - Index Value” turned out to be 1.2 and the “LDH Increase - Number of Reports” value is given as “>= 4”. In addition, in data set [6], the “GGT Increase - Activity Score” value is given as “Inactive”, the “GGT Increase - Index Value” is 0.3 and the “GGT Increase - Number of Reports” value is given as below 4.
For `NC(N)=Nc1nc(CSCCC(N)=NS(N)(=O)=O)cs1` [FAMOTIDINE], in data set [1] (Liver), the “Composite Activity - Active” value stood at 0, the “Composite Activity - Marginal” value is listed as 0 and the “Composite Activity - Score” value is on record as “Inactive”. In addition, in data set [2], the “Alkaline Phosphatase Increase - Activity Score” value is on record as “Inactive”, the “Alkaline Phosphatase Increase - Index Value” came to 0.8 and the “Alkaline Phosphatase Increase - Number of Reports” value is “>= 4”. For the same compound, in data set [3], the “SGOT Increase - Activity Score” value is “Inactive”, the “SGOT Increase - Index Value” stood at 0.8 and the “SGOT Increase - Number of Reports” value is on record as “>= 4”. In data set [4], the “SGPT Increase - Activity Score” value is “Inactive”, the “SGPT Increase - Index Value” was 0.7 and the “SGPT Increase - Number of Reports” value is recorded as “>= 4”. In data set [5], the “LDH Increase - Activity Score” value is listed as “Inactive”, the “LDH Increase - Index Value” was 0.4 and the “LDH Increase - Number of Reports” value is given as “>= 4”. For the same compound, in data set [6], the “GGT Increase - Activity Score” value is “Inactive”, the “GGT Increase - Index Value” is 0.4 and the “GGT Increase - Number of Reports” value is “>= 4”.
Regarding `C[C@]12CC[C@@H]3c4ccc(OC(=O)N(CCCl)CCCl)cc4CC[C@H]3[C@@H]1CC[C@@H]2O` [ESTRAMUSTINE], in data set [1], the “Composite Activity - Active” value is 1, the “Composite Activity - Marginal” value came to 0 and the “Composite Activity - Score” value is recorded as “Inactive”. Moreover, in data set [2], the “Alkaline Phosphatase Increase - Activity Score” value is “Active”, the “Alkaline Phosphatase Increase - Index Value” is on record as 43.7 and the “Alkaline Phosphatase Increase - Number of Reports” value was below 4. In addition, in data set [3], the “SGOT Increase - Activity Score” value is listed as “Inactive”, the “SGOT Increase - Index Value” worked out at 0 and the “SGOT Increase - Number of Reports” value is listed as below 4. Further, in data set [4], the “SGPT Increase - Activity Score” value was “Inactive”, the “SGPT Increase - Index Value” came out at 0 and the “SGPT Increase - Number of Reports” value is below 4. Also, in data set [5], the “LDH Increase - Activity Score” value was “Inactive”, the “LDH Increase - Index Value” came out at 0 and the “LDH Increase - Number of Reports” value is below 4. Also, in data set [6], the “GGT Increase - Activity Score” value is on record as “Inactive”, the “GGT Increase - Index Value” was 0 and the “GGT Increase - Number of Reports” value is reported as below 4.
As to `CCn1cc(C(=O)O)c(=O)c2cc(F)c(N3CCNCC3)nc21` [ENOXACIN], in data set [1], the “Composite Activity - Active” value amounted to 0, the “Composite Activity - Marginal” value is 0 and the “Composite Activity - Score” value is on record as “Inactive”. In data set [2], the “Alkaline Phosphatase Increase - Activity Score” value was “Inactive”, the “Alkaline Phosphatase Increase - Index Value” is listed as 0 and the “Alkaline Phosphatase Increase - Number of Reports” value is below 4. In data set [3], the “SGOT Increase - Activity Score” value is “Inactive”, the “SGOT Increase - Index Value” was found to be 0 and the “SGOT Increase - Number of Reports” value is recorded as below 4. For the same compound, in data set [4], the “SGPT Increase - Activity Score” value is “Inactive”, the “SGPT Increase - Index Value” came to 0 and the “SGPT Increase - Number of Reports” value is given as below 4. For the same compound, in data set [5], the “LDH Increase - Activity Score” value is recorded as “Inactive”, the “LDH Increase - Index Value” was 0 and the “LDH Increase - Number of Reports” value is recorded as below 4. In addition, in data set [6], the “GGT Increase - Activity Score” value is “Inactive”, the “GGT Increase - Index Value” came out at 0 and the “GGT Increase - Number of Reports” value is given as below 4.
